Like-named read-outs stand apart in the source and are kept apart here. Marks after values point to notes of the source that are not given here.
What was measured:
[1] = test system: MDA-MB-435 tumor xenografts; assay: MDA-MB-435 breast carcinoma xenograft model; type: in vivo, athymic (nu/nu) mice
Description: Positive controls are carried out with doxorubicin administered 3 times per week i.v.
The following results were obtained for compounds of Ex.1-Ex.12 tested against MDA-MB-435 tumor xenografts 3×/week for 3 weeks: […]

[2] = test system: MDA-MB-435 breast carcinoma; assay: Anchorage Dependent Growth Monolayer Assay (ADGMA), MDA-MB-435; type: cell-based, human; details: 3-day exposure, MTS readout, read-out: IC50 (average±S.D.) MDA-MB-435
Description: (§1) As indicated above, all of the compounds of formula I, and their corresponding pharmaceutically acceptable acid addition salts, are anti-tumor agents and are, therefore, useful in inhibiting the growth of various lymphomas, sarcomas, carcinomas, myelomas, and leukemia cell lines.
(§2) The ADGMA compares the number of viable cells following a 3-day exposure to a test compound relative to a number of cells present at the time the test compound was added. […] The absorbance at 490 nm (A490) of the formazan derivative is proportional to the number of viable cells. The IC50 for a test compound is the concentration of compound required to reduce the final cell number to 50% of the final control cell number. If cell proliferation is inhibited, the assay further defines compounds as cytostatic (cell number after 3-day compound incubation >cell number at time of compound addition) or cytotoxic (cell number after 3-day compound incubation <cell number at time of compound addition).
The MDA-MB-435 breast carcinoma line was obtained from the American Type Culture Collection (ATCC) and used between passages 4-20 following thawing. MDA-MB-435 breast carcinoma was maintained and plated in DME/F12 medium containing 10% fetal bovine serum, 15 mM HEPES (pH=7.4), 100 units/mL penicillin, and 100 μg/mL streptomycin.
(§3) Cell lines are trypsinized and counted using a Coulter counter to determine plating densities. Cells are then plated in their respective maintenance media (100 μL/well) in 96 well plates at the following densities: MDA-MB-435, 3,000 cells/well; A549 and HCT-116, 700 cells/well; are PC-3, 2500 cells/well. The number of cells plates as determined in preliminary experiments, results in cell densities of 75-90% of confluency by 4 days after plating. Initial cell densities, assayed one day after plating, are roughly 0.15-0.20 absorbance units greater than the media blank. Ninety-six well plates are seeded on day 0 and the test compounds are added on day 1. A control plate is created for each cell line that receives media only in row A and cells in row B. One day following plating, test compounds are added (in a final volume of 100 μL) to the test plates. Control plates receive 10 μL MTS mixture (prepared fresh on day of addition to cell plates at a ratio of 10 μL of a 0.92 mg/mL solution of PMS to a 190 μL of a 2 mg/mL solution of MTS) and 100 μL media. A490 of control plates is read 4 h after MTS addition to determine initial cell density values for each cell line. Three days after addition of test compound, 10 μL/well of MTS mixture is added to the test plates and A490 is read 4 h later. A490 values for wells containing cells are corrected for media absorbance, then normalized to initial density readings to determine percent net growth. IC50 values are determined from graphs of percent net growth as a function of compound concentration. Percent net growth is calculated as (Cell+Drug A490−Initial A490/Cell+Drug Vehicle A490−Initial A490).

[3] = test system: HCT-116 tumor xenografts; assay: HCT-116 colon carcinoma xenograft model; type: in vivo, athymic (nu/nu) mice
Description: Positive controls are carried out with 5-fluorouracil administered 1 time per week i.v.

[4] = test system: PC-3 tumor xenografts; assay: PC-3 prostate carcinoma xenograft model; type: in vivo, athymic (nu/nu) mice
[5] = test system: A549 tumor xenografts
Source text: Utilizing this model, one can measure the ability of test compounds to inhibit the growth of human tumor xenografts growing subcutaneously (s.c.) in athymic nude mice. The histologic tumor types employed were MDA-MB-435 breast, A549 non-small cell lung, HCT-116 colon and PC-3 prostate carcinomas.
A549 non-small cell lung carcinoma xenograft model: Briefly, 10 million cells were implanted s.c. into the right flank of athymic (nu/nu) mice, and were allowed to grow until a mass of approximately 120 mm^3 was established. The test compounds are administered three times per week intravenously (i.v.) for three weeks in 5% dextrose, 10%DMSO in water. The test compounds are administered in dose-response fashion in order to evaluate and document the full potential range of activity (efficacy and toxicity) for a given compound. Positive controls are carried out with mitomycin C administered 3 times per week intraperitioneally (i.p.).
Toxicity was monitored by recording average group body weights twice weekly, and by daily observation of general health. Efficacy was monitored by taking measurements of tumor length, width, and depth weekly using digital calipers coupled to automated data collectors. Mean tumor volume (MTV) at initiation of therapy was subtracted from final MTV in order to express the actual tumor growth during treatment (ΔMTV). Anti-tumor activity was expressed as %T/C (ΔMTV of treated group÷ΔMTV of control group×100). Regressions were calculated using the formula: (T/T0−1)×100%, where T is the tumor volume for the treatment group at the end of the experiment, and T0 is the tumor volume at the beginning of the experiment. Statistical significance was evaluated using a one-tailed Student's t-test (p<0.05).

[6] = test system: PC-3 prostate carcinoma; assay: Anchorage Dependent Growth Monolayer Assay (ADGMA), PC-3; type: cell-based, human; details: 3-day exposure, MTS readout, read-out: IC50 (average±S.D.) PC-3
Description: as §1, §2
(§4) A549, HCT-116 and PC-3 cells were maintained in RPMI 1640 containing 5% FBS, […], 1 nM β-estradiol, 1 nM testosterone, 100 units/mL penicillin and 100 ug/mL streptomycin.
as §3

[7] = test system: A549 non-small cell lung carcinoma; assay: Anchorage Dependent Growth Monolayer Assay (ADGMA), A549; type: cell-based, human; details: 3-day exposure, MTS readout, read-out: IC50 (average±S.D.) A549
Description: as §1, §2, §4, §3

[8] = test system: HCT-116 colon carcinoma; assay: Anchorage Dependent Growth Monolayer Assay (ADGMA), HCT-116; type: cell-based, human; details: 3-day exposure, MTS readout, read-out: IC50 (average±S.D.) HCT-116
Description: as §1, §2, §4, §3

[9] = H2O solubility; type: physicochemical; details: water; for Example 1 stated for the solid before preparative hplc
[10] = 10 μmol/kg i.v. 3×/week for 3 weeks
[11] = 33 μmol/kg i.v. 3×/week for 3 weeks
[12] = 100 μmol/kg i.v. 3×/week for 3 weeks

SMILES	% T/C [1, 10]	Dead/Total [1, 10]	% T/C [1, 11]	Dead/Total [1, 11]	% T/C [3, 10] [%]	Dead/Total [3, 10]	Δ MTV [3, 10] [mm^3]	% T/C [3, 11]	Dead/Total [3, 11]	Δ MTV [3, 11] [mm^3]	% T/C [3, 12]	Dead/Total [3, 12]	Δ MTV [3, 12] [mm^3]	% T/C [5, 10] [%]	Dead/Total [5, 10]	Δ MTV [5, 10] [mm^3]	% T/C [5, 11]	Dead/Total [5, 11]	Δ MTV [5, 11] [mm^3]	% T/C [5, 12]	other results
CO[C@@H](C(=O)N[C@H]1CC[C@@H](OC(=O)C2CCCCC2)CNC1=O)[C@H](O)[C@@H](O)[C@H](O)/C=C/C(C)(C)C [Ex. 1, (2R, 3R, 4S, 5R, 6E)-3,4,5-Trihydroxy-2-methoxy-8,8-dimethyl-N-[(3S, 6R)-hexahydro-2-oxo-6-(cyclohexylcarbonyl)oxy-2H-azepin-3-yl]non-6-enamide]	61* %	0/8	24* %	0/8	89	0/8	360	35* %	0/8	142	10* %	0/8	42	42	0/8	32	38%	0/8	29	14* %	% regression [1, 12]: 29 regression* %; Dead/Total [1, 12]: 0/8; Δ MTV [1, 12]: −11 mm^3; IC50 ([2]; Homo sapiens, MDA-MB-435, 72 h): 41 ± 26 nM; % T/C [4, 10]: 87%; Dead/Total [4, 10]: 0/7; Δ MTV [4, 10]: 1931 mm^3; % T/C [4, 11]: 32%; Dead/Total [4, 11]: 0/8; Δ MTV [4, 11]: 718 mm^3; % T/C [4, 12]: 8* %; Dead/Total [4, 12]: 1/8; Δ MTV [4, 12]: 185 mm^3; Dead/Total [5, 12]: 1/8; Δ MTV [5, 12]: 11 mm^3; IC50 ([6]; Homo sapiens, 72 h): 39 ± 13 nM; IC50 ([7]; Homo sapiens, A549, 72 h): 78 ± 38 nM; IC50 ([8]; Homo sapiens, HCT-116, 72 h): 41 ± 3 nM
CO[C@@H](C(=O)N[C@H]1CC[C@@H](OC(=O)C2CCCC2)CNC1=O)[C@H](O)[C@@H](O)[C@H](O)/C=C/C(C)(C)C [Ex. 2]	67%	0/8	13* %	0/8	75	0/8	303	56* %	0/8	225	25* %	0/8	102	58	0/8	44	37* %	0/8	28	9* %	IC50 [2]: 128 ± 47 nM; H2O solubility [9]: 18 mg/mL; Dead/Total [5, 12]: 0/7; Δ MTV [5, 12]: 7 mm^3; IC50 [6]: 145 ± 53 nM; IC50 [7]: 201 ± 100 nM; IC50 [8]: 120 ± 29 nM
